Patent US20220387375A1, “TRPV1 ACTIVATION-MODULATING COMPLEX MIXTURES OF CANNABINOIDS AND/OR TERPENES” (GBS Global Biopharma, Inc., priority 2018, published 2022)

Tests used:
[1] = target: T1, TRPV1 (Rattus norvegicus, UniProt O35433); experiment: Whole-cell patch clamp of TRPV1 currents in HEK293 cells overexpressing TRPV1 (HEK293-V1); format: cell-based; details: for ion selectivity / state of TRPV1 activation: 10 μM capsaicin; for effect of increasing internal calcium (0, 180, 620 nM) on falling phase or inactivation kinetics: 10 μM myrcene, then 1 μM capsaicin; for time course of induced TRPV1 current (sustained or inactivating): cannabinoid at 50, 5 μM myrcene or 1 μM capsaicin
T1 construct: FLAG; expressed in transfected cells
Description: HEK TRexTRPV1 were cultured in DMEM, 10% Fetal Bovine Serum, 2 mM Lglutamine, 10 μg/ml Blasticidin (Calbiochem, San Diego Calif.), 400 μg/ml Zeocin (InvivoGen, San Diego Calif.), where indicated transgene expression was induced using 1 μg/ml Tetracycline for 16-24 hrs. Unless otherwise indicated, basal expression of TRPV1 without induction was sufficient for these studies, and comparisons were made to untransfected HEK where needed. HEKTRex293 over-expressing human TRPV2, human TRPA1 and human TRPM8 were obtained from SB Drug Discovery (Glasgow, Scotland) and cultured as described above. The cannabinoids and terpenes were assayed in HEK cells that have been transfected with the TRPV1 ion channel protein. These cells are called HEK293-V1 cells.
This technique is used to study ionic currents from HEK293-V1. The voltage across the cell membrane is controlled and the ionic currents associated with changes in voltage are measured. A micropipette tip is pulled to a few micrometers in diameter followed by heating the tip to produce a smooth surface that assists in forming a high resistance seal with the cell membrane. To obtain this high resistance seal, the micropipette is pressed against a cell membrane and suction is applied. The membrane then fuses onto the glass surface creating a high resistance in the gigaohm range. This makes it possible to isolate electronically the ionic currents measured across the membrane patch or across the entire cell.
Patch-clamp experiments were performed in the whole-cell configuration at 21-25° C. Patch pipettes had resistances of 2-3 MΩ. Data was acquired with PatchMaster software (HEKA, Lambrecht, Germany), controlling an EPC-9 amplifier. Voltage ramps of 50 ms spanning the voltage range from −100 to 100 mV were delivered from a holding potential of 0 mV at a rate of 0.5 Hz over a period of 500 ms to 180 seconds (3 minutes). Voltages were corrected for a liquid junction potential of 10 mV. Currents were filtered at 2.9 kHz and digitized at 100 μs intervals. Capacitive currents were determined and corrected before each voltage ramp. The development of currents for a given potential was extracted from individual ramp current records by measuring the current amplitudes at voltages of −80 mV and +80 mV. Data were analyzed with FitMaster (HEKA, Lambrecht, Germany), and IgorPro (WaveMetrics, Lake Oswego, Oreg., USA). Where applicable, statistical errors of averaged data are given as mean±s.e.m with n determinations. The activated current amplitudes are analyzed by nA rather than pA/pF. […] Also the cell size selected for patching was in the 9 -12 pF range.
For patch-clamp recordings, HEK293 cells were kept in a standard sodium-based external Ringer's solution containing (mM): 140 NaCl, 1 CaCl2, 2 MgCl2, 2.8 KCl, 11 glucose, 10 HEPES-NaOH with a pH of 7.2 and osmolarity of 300 mOsmol. To assess the effects of external Calcium (Ca) on TRPV1 inactivation kinetics, Ca at different levels were tested including 0, 1, and 3 mM. In Experiments with zero external Ca, EGTA 10 mM was added and the Na concentration was lowered to 130 mM to maintain standard osmotic conditions at 300 mOsmol. For rapid external solution application and exchanges we used the SmartSquirt delivery system (Auto-Mate Scientific, San Francisco Calif., USA) that included four cryo tubes allowing for solution exchanges within one patch. This system included a ValveLink TTL interface between the electronic valves and the EPC10 amplifier (HEKA, Lambrecht, Germany). This electronic configuration allowed for programmable solution changes via the PatchMaster software (HEKA, Lambrecht, Germany).

[2] = target: T1, TRPV1; experiment: Bulk calcium assay (Fluo-4) in HEK-TRPV1 overexpressing cells; format: cell-based; details: for TRPV1-mediated calcium influx compared to vehicle: terpene 10 μM, vehicle subtracted (FIG. 14)
Description: Cells were washed and incubated with 0.2 micromolar Fluo-4 for 30 minutes at 37° C. in a standard modified Ringer's solution of the following composition (in mM): NaCl 145, KCl 2.8, CsCl 10, CaCl2 10, MgCl2 2, glucose 10, Hepes·NaOH 10, pH 7.4, 330 mOsm. Cells were transferred to 96-well plates at 50,000 cells/well and stimulated as indicated. Calcium signals were acquired using a Flexstation 3 (Molecular Devices, Sunnydale, USA). Data was analyzed using SoftMax® Pro 5 (Molecular Devices). Where indicated, nomically calcium-free external conditions were achieved by the preparation of 0 mM CaCl2 Ringer solution containing 1 mM EGTA.
The cell culture system described in U.S. patent application Ser. No. 15/986,316 was used to test the TRPV1-mediated calcium response to various terpenes. The HEK293 cell line was stably transfected with the pcDNA6TR (Invitrogen, CA) plasmid (encoding the tetracycline-sensitive TREx repressor protein), and was maintained in DMEM+10% fetal bovine serum (inactivated at 55° C. for 1 h)+2 mM glutamine in humidified 5% CO2 atmosphere at 37° C. Selection pressure on the TRex 293 cells was maintained by continuous culture in 10 μg/ml Blasticidin (Sigma, St Louis, Mo.).
For production of TRex HEK293 cells with inducible expression of TRPV1, parental cells were electroporated with the rat TRPV1 cDNA in the pcDNA4TO vector and clonal cell lines were selected by limiting dilution in the presence of 400 μg/ml zeocin (Invitrogen, CA). TRPV1 expression was induced using 1 μg/ml tetracycline for 16 h at 37° C. Stable lines were screened for inducible protein expression using anti-FLAG Western blot, and inducible expression was confirmed.
Calcium responses mediated by TRPV1 were tested by calcium assay in the cell culture system. Cells were washed and incubated with 0.2 μM fluo-4 acetoxymethyl ester (“Fluo-4”) for 30 minutes at 37° C. in a standard modified Ringer's solution of the following composition (in mM): NaCl 145, KCl2.8, CsCl10, CaCl2 10, MgCl2 2, glucose 10, Hepes·NaOH 10, pH 7.4, 330 mOsm. Cells were transferred to 96-well plates at 50,000 cells/well and stimulated as indicated. The terpenes used were alpha-bisabool, alpha-pinene, myrcene, camphene, linalool, ocimene, humulene, beta-caryophyllene, beta-pinene, limonene, and nerolidol. The terpenes were diluted in DMSO and added to the wells to a final concentration of 10 μM. Vehicle (DMSO) alone was run as a negative control and subtracted from the terpene traces. Calcium signals were acquired using a Flexstation 3 (Molecular Devices, Sunnydale, USA). Data was analyzed using SoftMax® Pro 5 (Molecular Devices).
Calcium responses mediated by TRPA1, TRPM8, TRPV2, and TRPV1 were tested by calcium assay in the cell culture system. Cells were washed and incubated with 0.2 μM fluo-4 acetoxymethyl ester (“Fluo-4”) for 30 minutes at 37° C. in a standard modified Ringer's solution of the following composition (in mM): NaCl 145, KCl 2.8, CsCl 10, CaCl2 10, MgCl2 2, glucose 10, Hepes·NaOH 10, pH 7.4, 330 mOsm. Cells were transferred to 96-well plates at 50,000 cells/well and stimulated with 10 μM myrcene diluted in DMSO. Vehicle (DMSO) was used as a negative control. Vehicle traces were subtracted from the myrcene traces for each cell line.
As shown in FIGS. 16A-H, a variety of cannabinoids were capable of initiating Ca^2+ fluxes in HEK-TRPV1 overexpressing cells, except for cannabigerol and cannabinol. Comparative responses to a single dose (10 μM concentration) of a variety of cannabinoids were made in the presence of 1 mM external Ca^2+, which are population-based, or bulk Ca^2+, measurements with each trace representing averaged triplicates of 100,000 cells per sample. […] For each of the cannabinoid compounds, dose responses at the population level were performed. […] The lower limit of detectable calcium responses in this system varied from 10-100 nM (CBDV, CBGA) to 1-10 μM.

T1 sequence (O35433 whole entry): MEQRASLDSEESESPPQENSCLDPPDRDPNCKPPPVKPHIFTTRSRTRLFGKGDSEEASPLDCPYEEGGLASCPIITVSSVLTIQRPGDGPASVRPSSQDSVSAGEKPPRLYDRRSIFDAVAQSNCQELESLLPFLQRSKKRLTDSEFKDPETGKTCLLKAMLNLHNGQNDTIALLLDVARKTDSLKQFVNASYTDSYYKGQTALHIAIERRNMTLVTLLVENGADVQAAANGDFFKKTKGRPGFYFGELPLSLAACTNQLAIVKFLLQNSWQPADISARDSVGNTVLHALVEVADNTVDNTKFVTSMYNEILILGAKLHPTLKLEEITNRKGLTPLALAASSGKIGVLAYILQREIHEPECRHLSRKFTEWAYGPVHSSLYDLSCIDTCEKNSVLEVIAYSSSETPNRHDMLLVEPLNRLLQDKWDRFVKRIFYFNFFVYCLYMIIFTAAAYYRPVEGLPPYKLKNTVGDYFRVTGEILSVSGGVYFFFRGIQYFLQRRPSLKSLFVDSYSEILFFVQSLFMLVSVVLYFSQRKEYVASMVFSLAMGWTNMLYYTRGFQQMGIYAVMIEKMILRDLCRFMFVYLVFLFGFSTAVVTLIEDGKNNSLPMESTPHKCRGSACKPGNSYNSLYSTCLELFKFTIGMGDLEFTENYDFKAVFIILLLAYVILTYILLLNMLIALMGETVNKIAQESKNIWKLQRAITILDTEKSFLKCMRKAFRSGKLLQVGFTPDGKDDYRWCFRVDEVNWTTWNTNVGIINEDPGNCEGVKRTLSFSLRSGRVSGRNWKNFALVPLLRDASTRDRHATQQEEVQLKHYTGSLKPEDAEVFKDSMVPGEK

## Oc1cc2c(cc1O)CN(C(=S)NCCc1ccc(Cl)cc1)CCC2 [Capsazepine, reference compound]
[1]; CPZ 10 μM for 30 seconds after 50 nM Capsaicin for 60 seconds
  effect on capsaicin-induced TRPV1 current: reduced both the inward and outward currents
[1]; CPZ added after 10 μM capsaicin
  effect on capsaicin-activated TRPV1 channel (state 1 and state 2): rapid TRPV1 channel deactivation
[1]; CPZ application 30 seconds after CBD 30 μM
  effect on CBD-induced TRPV1 current: reduced

## CC(C)=CCC[C@](C)(O)[C@@H]1CC=C(C)CC1 [alpha-bisabool]
[2]
  TRPV1-mediated calcium influx compared to vehicle: little to no calcium influx

## CC1=CCC2CC1C2(C)C (stereo not drawn) [alpha-pinene]
[2]
  TRPV1-mediated calcium influx compared to vehicle: little to no calcium influx

## C=C1CC/C=C(\C)CC[C@@H]2[C@@H]1CC2(C)C [beta-caryophyllene]
[2]
  TRPV1-mediated calcium influx compared to vehicle: little to no calcium influx

## C=C1CCC2CC1C2(C)C (stereo not drawn) [beta-pinene]
[2]
  TRPV1-mediated calcium influx compared to vehicle: little to no calcium influx

## C=C1C2CCC(C2)C1(C)C (stereo not drawn) [camphene]
[2]
  TRPV1-mediated calcium influx compared to vehicle: little to no calcium influx

## COc1cc(CNC(=O)CCCC/C=C/C(C)C)ccc1O [capsaicin, Capsaicin, reference compound]
[1]; 1 μM capsaicin (not shown), comparison to myrcene
  current induced: 4-10 nA
[1]; absence of internal BAPTA and Ca2+
  ion selectivity / state of TRPV1 activation: Ca^2 ion selective TRPV1 activation
[1]; presence of internal 10 mM BAPTA and 150 nM Ca2+
  ion selectivity / state of TRPV1 activation: Na^+ ion selective TRPV1 activation
[1]
  effect of increasing internal calcium (0, 180, 620 nM) on falling phase or inactivation kinetics: stronger effect
  time course of induced TRPV1 current (sustained or inactivating): sustained
[1]; Capsaicin 50 nM for 60 seconds, Ca 0 internally and externally
  type of TRPV1 current recorded: outwardly rectifying TRPV1 current
[1]; Capsaicin 500 nM
  rectification of current (resulted in rectifying currents or not): did not
[1]; Capsaicin low (30 nM) and medium (100 nM) doses
  rectification of current: rectifying currents
[1]; after 1 μM capsaicin
  IV relationship / TRPV1 channel state: linear due to TRPV1 transitioning to the dilated state (state 2)

## C/C1=C\CC/C(C)=C/CC(C)(C)/C=C/C1 [humulene]
[2]
  TRPV1-mediated calcium influx compared to vehicle: little to no calcium influx

## C=C(C)[C@H]1CC=C(C)CC1 [limonene]
[2]
  TRPV1-mediated calcium influx compared to vehicle: little to no calcium influx

## C=CC(C)(O)CCC=C(C)C (stereo not drawn) [linalool]
[2]
  TRPV1-mediated calcium influx compared to vehicle: little to no calcium influx

## C=CC(=C)CCC=C(C)C [myrcene, 7-methyl-3-methylideneocta-1,6-diene]
[1]; 5 μM myrcene, average of 6 independent experiments
  inward current induced: approximately 0.5 nA
[1]
  effect of increasing internal calcium (0, 180, 620 nM) on falling phase or inactivation kinetics: minor effect
  time course of induced TRPV1 current (sustained or inactivating): rapidly inactivating
[1]; 50 μM myrcene (FIG. 10C)
  IV relationship / TRPV1 channel state: state 1
[1]; 150 μM myrcene (FIG. 11)
  IV relationship / TRPV1 channel state: state 1
[1]; myrcene 5 μM, 10 μM and 150 μM (FIGS. 8A-8C)
  current induced: 0.5-2.2 nA
[2]; 10 μM myrcene
  activation of cells overexpressing TRPV1 (calcium entry): activated
[2]
  TRPV1-mediated calcium influx compared to vehicle: greatest amount of calcium influx

## C=CC(C)(O)CCC=C(C)CCC=C(C)C (stereo not drawn) [nerolidol]
[2]
  TRPV1-mediated calcium influx compared to vehicle: brief initial calcium influx

## C=CC(C)=CCC=C(C)C [ocimene]
[2]
  TRPV1-mediated calcium influx compared to vehicle: little to no calcium influx
